Experimental data: patent publication US20040105849A1, “Treatment for SMA disease” (priority 2002, published 2004)

Experiments:
[1] = tested on: Patient A, Spinal Muscular Atrophy (SMA) Type I; experiment: Tolerability / adverse effects of the supplements in Patient A; assay type: in vivo, human
Source text: It is understood that the amounts of the various ingredients of the method of the invention can be, as may be necessary, conveniently be adjusted up or down for body weigh and other variants of the disease. The mode of delivery may vary. […] Ingredients could also be injected into the gastric tube in solid, gel or semi-solid form. Other children may swallow ingredients in solid or liquid form (with pharmaceutically acceptable carriers, e.g., water).

[2] = tested on: Infantile Seborrhoeic Dermatitis (cradle cap); experiment: Treatment of Infantile Seborrhoeic Dermatitis (cradle cap) in Patient A; assay type: in vivo, human; conditions: about 4,000 mcg at intervals of three days per week
Source text: Early Symptoms and Patient Diagnosis. The patient (“Patient A”), a person. They were normal at birth with no signs of muscular weakness. Within three months of their birth, they developed a skin condition. […] Infantile Seborrhoeic Dermatitis, also known as cradle cap, is a condition that occurs in infants and is caused by the drying of excess oils excreted from the infant's body. It is characterized by a yellowish-whitish crust on the infant's head. Following medical consultation, various topical creams and ointments were employed without success. The B vitamin biotin was then given at a dosage of about 4,000 mcg at intervals of three days per week. Current research attributes cradle cap to a deficiency of this vitamin. […] Gut bacteria located in the large intestine are responsible for the production this B vitamin and a deficiency of this nutrient under normal conditions is rare.

SMILES: C[C@@H]1O[C@@H](OC[C@H]2O[C@@H](Oc3c(-c4ccc(O)c(O)c4)oc4cc(O)cc(O)c4c3=O)[C@H](O)[C@@H](O)[C@@H]2O)[C@H](O)[C@H](O)[C@H]1O [Rutin]
- adverse effects at higher dosages ([1]; dosages higher than approximately 3 mg every three days): nausea, decrease gastrointestinal motility and drowsiness
- adverse effect of rutin along with pectin ([1]; rutin added to pectin): caused their lips to blister and peel

SMILES: O=C(O)CCCC[C@@H]1SC[C@@H]2NC(=O)N[C@@H]21 [biotin]
- course of cradle cap [2]: resolved itself almost immediately

SMILES: O=c1c(O)c(-c2ccc(O)c(O)c2)oc2cc(O)cc(O)c12 [quercetin]
- adverse effect of too much quercetin ([1]; above 300 mg capsule, ½ capsule three days per week): depress Patient A's respiration
